Data from US8288441B2, “Compositions comprising a physiological coolant” (Givaudan Nederland Services B.V., priority 2007, dated 2012).

Test system: forearm skin
Experiment: Perception of cooling after applying aqueous ethanol solutions to the forearms of volunteers
Format: in vivo, human
Text: A simple aqueous ethanol solution (50:50) containing 1% by weight of lactoyl ethanolamide was applied to one forearm. The aqueous ethanol solution alone (control) was then applied to the other forearm at a similar dosage, and the perception of cooling from either arm noted. This was repeated on 10 volunteers in total.
(§1) A simple aqueous ethanol solution (50:50) containing 0.2% by weight of L-menthol and 1% by weight of lactoyl ethanolamide was applied to one forearm at a concentration of 2 drops per 10 square centimetres of skin. The aqueous ethanol solution containing just 0.2% by weight L-menthol was then applied to the other forearm at the same dose, and the perception of cooling from either arm noted. This was repeated on 10 volunteers.
as §1, with “and 0.5%” for “and 1%”, “containing” for “containing just”, “arm noted over 4 hours at 30 minute intervals.” for “arm noted.”, “on 12” for “on 10”
as §1, with “containing 1%” for “containing 0.2%”, “of menthyl lactate” for “of L-menthol”, “containing 1%” for “containing just 0.2%”, “weight menthyl lactate” for “weight L-menthol”, “arm noted over 4 hours at 30 minute intervals.” for “arm noted.”, “on 12” for “on 10”
as §1, with “1.0%” for “0.2%”, “menthone glyceryl ketal” for “L-menthol”, “0.5%” for “1%”, “1%” for “just 0.2%”, “noted over 4 hours at 1 hour intervals.” for “noted.”
(§2) A simple aqueous ethanol solution (50:50) containing 0.75% by weight of menthyl glyceryl ether and 0.5% by weight of lactoyl ethanolamide was applied to one forearm at a concentration of 2 drops per 10 square centimetres of skin. An aqueous ethanol solution containing 1% by weight menthyl glyceryl ether was then applied to the other forearm at the same dose, and the perception of cooling from either arm noted over a 4 hour period. This was repeated on 12 volunteers.
as §2, with “1%” for “0.75%”, “pyrrolidone carboxylate” for “glyceryl ether”, “dose” for “dose,”, “6” for “4”, “33” for “12”

[1] = Example 7, 1% menthyl pyrrolidone carboxylate + 0.5% lactoyl ethanolamide vs 1% menthyl pyrrolidone carboxylate alone, 6 hour period, 33 volunteers

CC(C)[C@@H]1CC[C@@H](C)C[C@H]1O [L-menthol]
period of time over which cooling was felt (Example 3, 0.2% L-menthol with or without 0.5% lactoyl ethanolamide, noted over 4 hours at 30 minute intervals, 12 volunteers): about 2 hours

CC1CCC(C(C)C)C2(C1)OCC(CO)O2 (stereo not shown) [menthone glyceryl ketal]
period of time over which cooling was felt (Example 5, 1% menthone glyceryl ketal with or without 0.5% lactoyl ethanolamide, noted over 4 hours at 1 hour intervals, 10 volunteers): about 3 hours

CC(O)C(=O)NCCO (stereo not shown) [lactoyl ethanolamide, N-lactoyl ethanolamide]
cooling perception versus placebo solution (Example 1, 1% by weight lactoyl ethanolamide in aqueous ethanol (50:50) vs aqueous ethanol alone, other forearm, 10 volunteers): no difference in cooling perception | cooling perception versus coolant alone (Example 2, 0.2% L-menthol + 1% lactoyl ethanolamide vs 0.2% L-menthol alone, 2 drops per 10 square centimetres, 10 volunteers): higher cooling perception | level of cooling versus coolant alone [1]: higher level of cooling | time for which the improved cooling perception was sustained [1]: at least 6 hours

CC1CCC(C(C)C)C(OC(=O)C(C)O)C1 (stereo not shown) [menthyl lactate]
period of time over which cooling was felt (Example 4, 1% menthyl lactate with or without 1% lactoyl ethanolamide, noted over 4 hours at 30 minute intervals, 12 volunteers): about 2 hours
